ChEMBL document CHEMBL2074559, “Inhibition of multidrug resistance-associated protein (MRP) activity by rifampicin in human multidrug-resistant lung tumor cells” (Cancer Lett, 1999)

Experiments:
[1] = target: T1, Multidrug resistance-associated protein 1 (Homo sapiens, UniProt P33527); experiment: TP_TRANSPORTER: increase in Calcein intracellular accumulation (Calcein: 0.5 uM, Rifampicin: 200 uM) in GLC4/ADR cells; type: functional, cell-based; details: glc-4/adr
[2] = target: T1, Multidrug resistance-associated protein 1; experiment: TP_TRANSPORTER: increase in Calcein intracellular accumulation (Calcein: 0.5 uM, Rifamycin SV: 200 uM) in GLC4/ADR cells; type: functional, cell-based; details: glc-4/adr

T1 sequence (P33527 whole entry): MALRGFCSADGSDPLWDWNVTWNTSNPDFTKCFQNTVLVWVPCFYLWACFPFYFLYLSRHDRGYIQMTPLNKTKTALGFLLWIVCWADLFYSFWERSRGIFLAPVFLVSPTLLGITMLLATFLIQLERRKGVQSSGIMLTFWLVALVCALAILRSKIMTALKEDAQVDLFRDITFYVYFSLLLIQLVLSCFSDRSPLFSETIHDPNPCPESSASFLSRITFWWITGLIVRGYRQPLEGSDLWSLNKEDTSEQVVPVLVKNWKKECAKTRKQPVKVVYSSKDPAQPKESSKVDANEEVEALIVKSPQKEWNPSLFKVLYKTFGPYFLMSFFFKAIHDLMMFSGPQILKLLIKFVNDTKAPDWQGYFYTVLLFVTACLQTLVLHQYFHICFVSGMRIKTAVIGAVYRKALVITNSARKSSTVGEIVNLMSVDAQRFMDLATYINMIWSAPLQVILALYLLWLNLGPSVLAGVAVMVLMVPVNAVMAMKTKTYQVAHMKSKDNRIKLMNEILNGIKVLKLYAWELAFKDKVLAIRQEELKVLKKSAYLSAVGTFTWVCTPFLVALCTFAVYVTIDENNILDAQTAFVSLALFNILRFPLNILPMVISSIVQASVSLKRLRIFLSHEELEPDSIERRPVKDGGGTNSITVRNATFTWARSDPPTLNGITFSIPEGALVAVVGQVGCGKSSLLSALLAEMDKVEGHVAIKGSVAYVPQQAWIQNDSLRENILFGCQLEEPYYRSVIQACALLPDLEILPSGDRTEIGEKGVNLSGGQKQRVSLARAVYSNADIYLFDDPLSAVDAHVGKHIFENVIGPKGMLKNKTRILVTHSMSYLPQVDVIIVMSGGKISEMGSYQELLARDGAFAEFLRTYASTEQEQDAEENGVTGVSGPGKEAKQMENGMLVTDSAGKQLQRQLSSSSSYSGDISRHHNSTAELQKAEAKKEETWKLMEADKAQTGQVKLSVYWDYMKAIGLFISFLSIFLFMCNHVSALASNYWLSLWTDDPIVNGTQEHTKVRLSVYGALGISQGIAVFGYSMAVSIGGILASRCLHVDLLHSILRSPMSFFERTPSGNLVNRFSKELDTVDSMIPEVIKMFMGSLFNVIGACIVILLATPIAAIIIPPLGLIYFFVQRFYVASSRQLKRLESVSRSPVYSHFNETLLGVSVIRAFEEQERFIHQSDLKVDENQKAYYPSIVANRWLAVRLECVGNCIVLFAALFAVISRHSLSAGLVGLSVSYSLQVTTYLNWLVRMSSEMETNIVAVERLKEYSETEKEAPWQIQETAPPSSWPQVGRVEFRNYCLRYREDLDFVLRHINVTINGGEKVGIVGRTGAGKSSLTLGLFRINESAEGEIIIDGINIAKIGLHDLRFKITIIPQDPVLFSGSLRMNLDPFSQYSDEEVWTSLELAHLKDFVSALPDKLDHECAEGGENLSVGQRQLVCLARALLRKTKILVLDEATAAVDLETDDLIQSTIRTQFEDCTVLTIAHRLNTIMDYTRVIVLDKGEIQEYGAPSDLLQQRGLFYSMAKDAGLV

Compound	Activity [1] [%]	Activity [2] [%]
CO[C@H]1/C=C/O[C@@]2(C)Oc3c(C)c(O)c4c(O)c(c(/C=N/N5CCN(C)CC5)c(O)c4c3C2=O)NC(=O)/C(C)=C\C=C\[C@H](C)[C@H](O)[C@@H](C)[C@@H](O)[C@@H](C)[C@H](OC(C)=O)[C@@H]1C [RIFAMPIN]	110	–
CO[C@H]1/C=C/O[C@@]2(C)Oc3c(C)c(O)c4c(O)c(cc(O)c4c3C2=O)NC(=O)/C(C)=C\C=C\[C@H](C)[C@H](O)[C@@H](C)[C@@H](O)[C@@H](C)[C@H](OC(C)=O)[C@@H]1C [RIFAMYCIN]	–	110
